The results in this text go back to patent publication US20020052361A1, “Pharmaceutical compositions and method for the treatment of hypertension” (priority 1999, published 2002).

Type in all cases: in vivo, Sprague-Dawley rats
In data set [1] the test system is chronically hypoxic rats. The data set can be described thus: Haemodynamic tests: systemic blood pressure via carotid artery cannula. The conditions noted are these: 40 mg/kg per day, result in words. The procedure:
(§1) The test substance employed was (3S,2R′)-3-[1-(2′-(carboxy-4′-phenylbutyl)cyclopentane-1-carbonylamino]-2,3,4,5-tetrahydro-2-oxo-1H-1-benzazepine-1-acetic acid, which is representative of the substances of formula I which can be used in the invention. The dose of the substance administered was 40 mg/kg per day (sufficient to suppress the pressure feedback on big endothelin).
(§2) The test animals used were Sprague-Dawley rats (260 to 310 g; n=6 to 10 per test group). In order to produce pulmonary hypertension, the animals were exposed to […] hypoxic conditions in a pressure chamber. For comparison, one control group was kept under normal air and another control group under hypoxic conditions.
The animals were treated with the active substance or a vehicle by means of osmotic mini-pumps. […]
The animals were anaesthetised, then a ready-made cannula was inserted into the pulmonary artery in a conventional manner via the right jugular vein, atrium and ventricle. […] Once the animals were conscious, pulmonary artery pressure (PAP) was recorded. The rats were then exposed to hypoxic conditions (10% O2) again for 10 minutes in a mini-chamber and the increase in pulmonary artery pressure was measured and also recorded. […] The given data are means±standard deviations and were statistically analysed by means of ANOVA.

Data set [2] deals with chronically hypoxic rats. Briefly: Measurement of the antihypertrophic effect: right and left ventricular weights. The conditions noted are these: for Rt/LtHWt (ratio of right to left ventricular weight) / RtHWt (right ventricular weight) / RtHWt/BW (ratio of right ventricular weight to body weight): rats, 40 mg/kg/day for 14 days, mean ± SD. The procedure: as §1, §2
(§3) The animals were treated with the active substance or a vehicle by means of osmotic mini-pumps. The osmotic mini-pumps had been implanted intraperitoneally in the animals before they were kept in a pressure chamber 24 h later for a period of two weeks. There the animals were kept at normal pressure either under hypoxic conditions (10% O2) or in normal air. After two weeks the animals were prepared for the haemodynamic tests and the measurements were carried out.
After completion of the haemodynamic tests, the animals were sacrificed and their hearts were dissected out. The weights of the right and left ventricles were determined and calculated in relation to bodyweight. The effects of the test substance on the heart weights under normotoxic and hypoxic conditions are presented in Table 1 in comparison with the control tests. The given data are means±standard deviations and were statistically analysed by means of ANOVA.

Data set [3] relates to chronically hypoxic rats. The data set can be described thus: Haemodynamic tests: pulmonary artery pressure in rats kept 14 days under normoxic or hypoxic conditions. The conditions noted are these: for PAP (pulmonary artery pressure): rats, 40 mg/kg/day for 14 days via i.p. osmotic mini-pump, mean ± SD. As for the experimental part:
as §1, §2, §3
The animals were anaesthetised, then a ready-made cannula was inserted into the pulmonary artery in a conventional manner via the right jugular vein, atrium and ventricle. A catheter was inserted into the left jugular vein in order to allow intravenous administration of active substances. The left carotid artery was also fitted with a cannula for the purpose of measuring systemic blood pressure. Once the animals were conscious, pulmonary artery pressure (PAP) was recorded. The rats were then exposed to hypoxic conditions (10% O2) again for 10 minutes in a mini-chamber and the increase in pulmonary artery pressure was measured and also recorded. The effects of the test substance on PAP under normotoxic and hypoxic conditions are presented in Table 1 in comparison with the control tests. The given data are means±standard deviations and were statistically analysed by means of ANOVA.

Data set [4] relates to chronically hypoxic rats. The data set can be described thus: Effect on pulmonary artery remodelling: muscularisation of distal pulmonary vessels (histology, van Gieson staining). As for the experimental part: as §1, §2, §3
After the rats had been sacrificed, the lungs as well as the hearts were isolated. The lungs underwent histological examination, i.e. the degree of muscularisation of the distal pulmonary vessels was determined after “van Gieson” staining, by microscopy at 400× magnification. The effects of the test substance on pulmonary artery remodelling (i.e. on muscularisation of the distal pulmonary vessels) during two weeks' hypoxia are presented in Table 2 in comparison with the hypoxic control tests. The given data are means±standard deviations and were statistically analysed by means of ANOVA.

The mark [5] stands for this setting: hypoxic rats, 40 mg/kg per day, result in words.
The mark [6] stands for this setting: rats, 14 days' hypoxia, 40 mg/kg/day for 14 days, mean ± SD, n = 8.

For the compound `O=C(O)CN1C(=O)[C@@H](NC(=O)C2(C[C@@H](CCc3ccccc3)C(=O)O)CCCC2)CCc2ccccc21` [Test substance], the “Effect on normal systemic blood pressure (hypotensive properties)” value in data set [1] is reported as “unaffected”. In addition, in data set [2] (setting [5]), the “Effect on ratio between right and left ventricular weights” value is listed as “tendency towards a reduction”; the “Effect on ratio between right heart weight and bodyweight” value is “tendency towards a reduction”; the “Effect on right heart weight (antihypertrophic effect) in comparison with hypoxic control tests” value is “statistically significant reduction”. Also, in data set [2] (14-day hypoxia (10% O2), n=9), the “Rt/LtHWt (ratio of right to left ventricular weight)” value is 0.40 ± 0.02 mg/mg, the “RtHWt (right ventricular weight)” value amounted to 242 ± 6.4 mg and the “RtHWt/BW (ratio of right ventricular weight to body weight)” value worked out at 0.87 ± 0.03 mg/g. Moreover, in data set [2] (14-day normoxia, n = 8), the “Rt/LtHWt (ratio of right to left ventricular weight)” value is recorded as 0.25 ± 0.01 mg/mg, the “RtHWt (right ventricular weight)” value is given as 171 ± 10 mg and the “RtHWt/BW (ratio of right ventricular weight to body weight)” value is 0.56 ± 0.03 mg/g. Moreover, in data set [3] (setting [5]), the “Effect on pulmonary artery pressure (PAP) in comparison with hypoxic control animals” value is given as “statistically significant decrease”. The “PAP (pulmonary artery pressure)” value in data set [3] (14-day hypoxia (10% O2), n=9) worked out at 33.2 ± 1.2 mmHg. The “PAP (pulmonary artery pressure)” value in data set [3] (14-day normoxia, n = 8) came to 22.2 ± 1 mmHg. In data set [4] (setting [5]), the “Effect on muscularisation of the distal pulmonary vessels” value was “statistically significantly reduced”. Moreover, in data set [4] (setting [6]), the “Muscularised distal pulmonary vessels” value was 52 ± 5 %, the “Non-muscularised distal pulmonary vessels” value was 9 ± 3% and the “Partly muscularised distal pulmonary vessels” value is reported as 39 ± 4 %.
